Tests used:
[1] = system: ulcerative colitis model (dextran sodium sulphate); experiment: Effect Example 1: therapeutic effect on ulcerative colitis, dextran sodium sulphate model, injected treatment, 14 days; format: in vivo, C57 mice; details: for Average colon length of mice / Average colon weight of mice / Unit colon weight of mice (colon weight/colon length): day 14
Experimental: Thirty 10-week-old male C57 mice, SPF class animal house, temperature 20-26° C., humidity 40%-70%, alternating light-dark periods (12 h/12 h).
(§1) Quarantine-qualified animals with similar weights were selected for the experiment.
Mice in the blank control group were given normal drinking water throughout the experiment. The other 5 groups of mice were given drinking water containing 2% dextran sodium sulphate (DSS) from day 1 to day 5, normal drinking water from day 6 to day 7, drinking water containing 2% dextran sodium sulphate from day 8 to day 12, and normal drinking water from day 13 to day 14. The experiment ended on day 14.
Animals in the blank control group and ulcerative colitis model group were given sterile water intraperitoneally from day 1, once a day; the other 4 groups were administered according to table 1, once a day, until the end of the experiment on day 14. Two hours after the first day of administration, the mice were started to drink water containing dextran sodium sulphate.
(§2) (1) The mice were weighed daily.
(2) Blood samples were collected from the orbital vein on day 14 and stored at −80° C.
(3) On day 14, the mice were sacrificed by cervical vertebra dislocation, the colon was removed and a small amount of fecal was taken from the colon and left as a sample. The colon length and colon weight were measured. A portion of the colon and the fecal sample was stored at −80° C.

[2] = system: ulcerative colitis model (dextran sodium sulphate); experiment: Effect Example 3: therapeutic effect on ulcerative colitis, dextran sodium sulphate model, oral gavage, 7 days; format: in vivo, C57 mice; details: 40 mg/kg oral gavage
Experimental: Fifty 10-week-old male C57 mice, SPF class animal house, temperature 20-26° C., humidity 40%-70%, alternating light-dark periods (12 h/12 h).
as §1
Mice in the blank control group were given normal drinking water throughout the experiment. The other 9 groups of mice were given drinking water containing 2% dextran sodium sulphate from day 1 to day 7. All groups were administered by oral gavage once a day according to table 10, until the end of the experiment.
as §2
(2) Blood samples were collected from the orbital vein on day 7 and stored at −80° C.
(3) On day 7, the mice were sacrificed by cervical vertebra dislocation, the colon was removed and a small amount of fecal was taken from the colon and left as a sample. The colon length and colon weight were measured. A portion of the colon and the fecal sample was stored at −80° C.

[3] = Day 1, high-dose treatment group 40 mg/kg intraperitoneal injection
[4] = Day 1, low-dose treatment group 10 mg/kg intraperitoneal injection
[5] = Day 1, middle-dose treatment group 20 mg/kg intraperitoneal injection
[6] = Day 2, high-dose treatment group 40 mg/kg intraperitoneal injection
[7] = Day 2, low-dose treatment group 10 mg/kg intraperitoneal injection
[8] = Day 2, middle-dose treatment group 20 mg/kg intraperitoneal injection
[9] = Day 3, high-dose treatment group 40 mg/kg intraperitoneal injection
[10] = Day 3, low-dose treatment group 10 mg/kg intraperitoneal injection
[11] = Day 3, middle-dose treatment group 20 mg/kg intraperitoneal injection
[12] = Day 4, high-dose treatment group 40 mg/kg intraperitoneal injection
[13] = Day 4, low-dose treatment group 10 mg/kg intraperitoneal injection
[14] = Day 4, middle-dose treatment group 20 mg/kg intraperitoneal injection
[15] = Day 5, high-dose treatment group 40 mg/kg intraperitoneal injection
[16] = Day 5, low-dose treatment group 10 mg/kg intraperitoneal injection
[17] = Day 5, middle-dose treatment group 20 mg/kg intraperitoneal injection
[18] = Day 6, high-dose treatment group 40 mg/kg intraperitoneal injection
[19] = Day 6, low-dose treatment group 10 mg/kg intraperitoneal injection
[20] = Day 6, middle-dose treatment group 20 mg/kg intraperitoneal injection
[21] = Day 7, high-dose treatment group 40 mg/kg intraperitoneal injection
[22] = Day 7, low-dose treatment group 10 mg/kg intraperitoneal injection
[23] = Day 7, middle-dose treatment group 20 mg/kg intraperitoneal injection
[24] = Day 8, high-dose treatment group 40 mg/kg intraperitoneal injection
[25] = Day 8, low-dose treatment group 10 mg/kg intraperitoneal injection
[26] = Day 8, middle-dose treatment group 20 mg/kg intraperitoneal injection
[27] = Day 9, high-dose treatment group 40 mg/kg intraperitoneal injection
[28] = Day 9, low-dose treatment group 10 mg/kg intraperitoneal injection
[29] = Day 9, middle-dose treatment group 20 mg/kg intraperitoneal injection
[30] = Day 10, high-dose treatment group 40 mg/kg intraperitoneal injection
[31] = Day 10, low-dose treatment group 10 mg/kg intraperitoneal injection
[32] = Day 10, middle-dose treatment group 20 mg/kg intraperitoneal injection
[33] = Day 11, high-dose treatment group 40 mg/kg intraperitoneal injection
[34] = Day 11, low-dose treatment group 10 mg/kg intraperitoneal injection
[35] = Day 11, middle-dose treatment group 20 mg/kg intraperitoneal injection
[36] = Day 12, high-dose treatment group 40 mg/kg intraperitoneal injection
[37] = Day 12, low-dose treatment group 10 mg/kg intraperitoneal injection
[38] = Day 12, middle-dose treatment group 20 mg/kg intraperitoneal injection
[39] = Day 13, high-dose treatment group 40 mg/kg intraperitoneal injection
[40] = Day 13, low-dose treatment group 10 mg/kg intraperitoneal injection
[41] = Day 13, middle-dose treatment group 20 mg/kg intraperitoneal injection
[42] = Day 14, high-dose treatment group 40 mg/kg intraperitoneal injection
[43] = Day 14, low-dose treatment group 10 mg/kg intraperitoneal injection
[44] = Day 14, middle-dose treatment group 20 mg/kg intraperitoneal injection
[45] = high-dose treatment group 40 mg/kg intraperitoneal injection
[46] = low-dose treatment group 10 mg/kg intraperitoneal injection
[47] = middle-dose treatment group 20 mg/kg intraperitoneal injection
[48] = intraperitoneal injection 10, 20, 40 mg/kg, vs ulcerative colitis model group

CC(C)=C1OC(C)=C(O[C@@H]2O[C@H](CO)[C@@H](O)[C@H](O)[C@H]2O)C1=O [Compound I-1, 4-O-β-D-glucosyl-5-methyl-2-(1-methylethylidene)-3(2H)-furanone]
Average weight of mice [1, 3]: 27.6 g | Rate of change in weight of mice [1, 3]: 100.0% | Average weight of mice [1, 4]: 27.9 g | Rate of change in weight of mice [1, 4]: 100.0% | Average weight of mice [1, 5]: 27.8 g | Rate of change in weight of mice [1, 5]: 100.0% | Average weight of mice [1, 6]: 27.6 g | Rate of change in weight of mice [1, 6]: 99.9% | Average weight of mice [1, 7]: 28.1 g | Rate of change in weight of mice [1, 7]: 100.6% | Average weight of mice [1, 8]: 27.8 g | Rate of change in weight of mice [1, 8]: 100.1% | Average weight of mice [1, 9]: 27.6 g | Rate of change in weight of mice [1, 9]: 100.0% | Average weight of mice [1, 10]: 28.0 g | Rate of change in weight of mice [1, 10]: 100.5% | Average weight of mice [1, 11]: 27.9 g | Rate of change in weight of mice [1, 11]: 100.3% | Average weight of mice [1, 12]: 27.6 g | Rate of change in weight of mice [1, 12]: 100.0% | Average weight of mice [1, 13]: 28.0 g | Rate of change in weight of mice [1, 13]: 100.3% | Average weight of mice [1, 14]: 27.9 g | Rate of change in weight of mice [1, 14]: 100.3% | Average weight of mice [1, 15]: 27.3 g | Rate of change in weight of mice [1, 15]: 99.1% | Average weight of mice [1, 16]: 27.2 g | Rate of change in weight of mice [1, 16]: 97.6% | Average weight of mice [1, 17]: 27.5 g | Rate of change in weight of mice [1, 17]: 99.1% | Average weight of mice [1, 18]: 27.2 g | Rate of change in weight of mice [1, 18]: 98.7% | Average weight of mice [1, 19]: 26.3 g | Rate of change in weight of mice [1, 19]: 94.3% | Average weight of mice [1, 20]: 27.2 g | Rate of change in weight of mice [1, 20]: 97.8% | Average weight of mice [1, 21]: 26.8 g | Rate of change in weight of mice [1, 21]: 97.0% | Average weight of mice [1, 22]: 25.9 g | Rate of change in weight of mice [1, 22]: 93.0% | Average weight of mice [1, 23]: 26.7 g | Rate of change in weight of mice [1, 23]: 96.0% | Average weight of mice [1, 24]: 26.3 g | Rate of change in weight of mice [1, 24]: 95.3% | Average weight of mice [1, 25]: 25.6 g | Rate of change in weight of mice [1, 25]: 91.6% | Average weight of mice [1, 26]: 26.2 g | Rate of change in weight of mice [1, 26]: 94.3% | Average weight of mice [1, 27]: 25.8 g | Rate of change in weight of mice [1, 27]: 93.5% | Average weight of mice [1, 28]: 25.3 g | Rate of change in weight of mice [1, 28]: 90.8% | Average weight of mice [1, 29]: 25.9 g | Rate of change in weight of mice [1, 29]: 93.2% | Average weight of mice [1, 30]: 25.6 g | Rate of change in weight of mice [1, 30]: 92.7% | Average weight of mice [1, 31]: 24.9 g | Rate of change in weight of mice [1, 31]: 89.1% | Average weight of mice [1, 32]: 25.6 g | Rate of change in weight of mice [1, 32]: 92.2% | Average weight of mice [1, 33]: 25.5 g | Rate of change in weight of mice [1, 33]: 92.2% | Average weight of mice [1, 34]: 24.4 g | Rate of change in weight of mice [1, 34]: 87.5% | Average weight of mice [1, 35]: 25.3 g | Rate of change in weight of mice [1, 35]: 91.1% | Average weight of mice [1, 36]: 25.4 g | Rate of change in weight of mice [1, 36]: 92.0% | Average weight of mice [1, 37]: 24.1 g | Rate of change in weight of mice [1, 37]: 86.4% | Average weight of mice [1, 38]: 25.0 g | Rate of change in weight of mice [1, 38]: 90.0% | Average weight of mice [1, 39]: 25.3 g | Rate of change in weight of mice [1, 39]: 91.5% | Average weight of mice [1, 40]: 23.8 g | Rate of change in weight of mice [1, 40]: 85.3% | Average weight of mice [1, 41]: 24.8 g | Rate of change in weight of mice [1, 41]: 89.2% | Average weight of mice [1, 42]: 25.2 g | Rate of change in weight of mice [1, 42]: 91.4% | Average weight of mice [1, 43]: 23.7 g | Rate of change in weight of mice [1, 43]: 84.9% | Average weight of mice [1, 44]: 24.7 g | Rate of change in weight of mice [1, 44]: 88.8% | Average colon length of mice [1, 45]: 6.52 cm | Average colon weight of mice [1, 45]: 0.2129 g | Unit colon weight of mice (colon weight/colon length) [1, 45]: 0.0327 g/cm | Average colon length of mice [1, 46]: 5.46 cm | Average colon weight of mice [1, 46]: 0.1909 g | Unit colon weight of mice (colon weight/colon length) [1, 46]: 0.0351 g/cm | Average colon length of mice [1, 47]: 6.04 cm | Average colon weight of mice [1, 47]: 0.2115 g | Unit colon weight of mice (colon weight/colon length) [1, 47]: 0.0351 g/cm | Colon length compared with the positive control group (in words) ([1]; high-dose treatment group 40 mg/kg intraperitoneal injection vs cyclosporine A 50 mg/kg): even better than the positive control group | Effect on the length of the colon (in words) [1, 48]: could gradually restore the length of the colon to normal | Effect on the reduction in the weight of mice (in words) [1, 48]: significant ameliorating effect on the reduction in the weight of mice | Effect on the unit colon weight (in words) [1, 48]: could significantly improve the unit colon weight | Effect on the colon length (in words) [2]: can gradually restore the colon length | Average weight of mice ([2]; Day 1): 21.33 g | Average weight of mice ([2]; Day 2): 20.97 g | Average weight of mice ([2]; Day 3): 20.80 g | Average weight of mice ([2]; Day 4): 20.85 g | Average weight of mice ([2]; Day 5): 20.53 g | Average weight of mice ([2]; Day 6): 20.13 g | Average weight of mice ([2]; Day 7): 19.82 g | Average colon length of mice ([2]; day 7): 6.2 cm

— patent US20230092001A1, “FURANEOL GLYCOSIDE COMPOUND, PHARMACEUTICAL COMPOSITION THEREOF, PREPARATION METHOD THEREFOR, AND APPLICATION THEREOF” (priority 2019, published 2023)
